The values below come from article PMC10610134, “Verubulin (Azixa) Analogues with Increased Saturation: Synthesis, SAR and Encapsulation in Biocompatible Nanocontainers Based on Ca^2+ or Mg^2+ Cross-Linked Alginate” (Pharmaceuticals, 2023).

For orientation: IC50 means the concentration that inhibits the measured activity by half.

The test system of data set [1] is immortalized lung fibroblast cell line VA13 (WI38 subline 2RA). Nature of the data set: MTT cytotoxicity assay, VA13. The data set is classed as cell-based. Conditions: Homo sapiens, VA-13; 64 h treatment, MTT; read-out: IC50, nM VA13. The source says:
(§1) The obtained series of verubulin analogues 2a–r (which also included three by-products isolated in the reactions according to Scheme 2) were initially evaluated for cytotoxicity against commonly used human breast cancer cell line MCF7′ (fast-growth subclone), human lung epithelial carcinoma cell line A549 and etiologically non-cancer immortalized lung fibroblast cell line VA13 (WI38 subline 2RA). Cytotoxicity against immortalized human embryonic kidney cell line HEK293T, characterized by a high growth rate, was also studied regarding cytotoxicity against non-cancerous fast-growth cells. A standard MTT assay was performed; verubulin (1) served as a positive reference. The data obtained are presented in Table 1 (for dose–response curves, see Supplementary Materials).
(§2) Human breast cancer cell line MCF7′ and human lung adenocarcinoma cell line A549 were kindly provided by Dr. S. Dmitriev (Lomonosov Moscow State University), immortalized human fibroblast cell line VA13 (WI38 subline 2RA) was kindly provided by Dr. M. Rubtsova (Lomonosov Moscow State University), human embryonic kidney HEK293T cell line was kindly provided by Dr. E. Knyazhanskaya (Lomonosov Moscow State University). MCF7′, VA13, A549 and HEK293T cell lines were maintained in DMEM/F-12 (Thermo Fisher Scientific, Waltham, MA, USA) culture medium containing 10% fetal bovine serum (Thermo Fisher Scientific, Waltham, MA, USA) and 50 μg/mL penicillin and 0.05 mg/mL streptomycin at 37 °C (Thermo Fisher Scientific, Waltham, MA, USA) in 5% CO2. Cells were maintained at 37 °C in a humidified MCO-18AC incubator (Sanyo, Tokyo, Japan) supplied with 5% CO2. Cell cultures were tested for the absence of mycoplasma and validated by STR.
(§3) The cytotoxicity of the substances was tested using the 3-(4,5-dimethylthiazol-2-yl)2,5-diphenyl tetrazolium bromide (MTT) assay with some modifications. A total of 2500 cells per well for the MCF7′, HEK293T, A549 cell lines or 4000 cells per well for the VA-13 cell line were plated out in 135 μL of DMEM-F12 media (Gibco, Thermo Fisher Scientific, Waltham, MA, USA) in a 96-well plate and incubated in the 5% CO2 incubator for the first 20 h without treatment. Then, 15.8 μL of media–DMSO solutions of tested substances (final DMSO concentrations in the media were 0.5% or less) was added to the cells (triplicate each) and cells were treated for 64 h with 0.023 mg/L–50 mg/L (eight dilutions) of compounds 2f,n,o,r; 1.14 μg/L–2.5 mg/L (eight dilutions) of compounds 2a,b,d,g,h,k,l,p,q; 57.2 ng/L–125 μg/L (eight dilutions) of compounds 2e,i,j; 22.9 ng/L–50 μg/L (eight dilutions) of compounds 1,2c,m. Doxorubicin was used as a control substance. Then, the MTT reagent (Paneco LLC, Moscow, Russia) was added to cells up to a final concentration of 0.5 g/L (10 × stock solution in PBS was used) and incubated for 2 h at 37 °C in the incubator, under an atmosphere of 5% CO2. Then, the MTT solution was discarded, and 140 μL of DMSO (PharmaMed LLC, Moscow, Russia) was added. The plates were swayed on a shaker (120 rpm) to dissolve the formazan. The absorbance was measured using a microplate reader (VICTOR X5 Light Plate Reader, PerkinElmer, Waltham, MA, USA) at a wavelength of 555 nm (in order to measure formazan concentration). The results were used to construct dose–response graphs and to estimate IC50 values (IC50 is the concentration resulting in half of the maximal cytotoxic effect) with GraphPad Prism V, GraphPadSoftware, Inc., San Diego, CA, USA.
Background: Tetrazolium dyes change colour on reduction, which living cells bring about.

Data set [2] deals with tubulin (Tb) and microtubule-associated proteins (MAPs) from mouse brains. Nature of the data set: Tubulin + MAP polymerization assay. In kind it is biochemical. Conditions: GTP-dependent polymerization, read-out: IC50 of tubulin polymerization (initial rates, optical density at 355 nm).
In data set [3] the test system is MCF7′, A549, VA13, HEK293T cell lines. Nature of the data set: MTT cytotoxicity, SAR statements over the cell line panel. In kind it is cell-based, human.
Text: as §1, §3

Data set [4] relates to human lung epithelial carcinoma cell line A549. Nature of the data set: MTT cytotoxicity assay, A549. Conditions: A549, 64 h treatment, MTT, read-out: IC50, nM A549. In kind it is cell-based.
Text: as §1, §2, §3

For data set [5], the system named is human breast cancer cell line MCF7′. The data set is described as follows: MTT cytotoxicity assay, MCF7′. Conditions: MCF7, 64 h treatment, MTT, read-out: IC50, nM MCF7′. The data set is classed as cell-based.
Text: as §1, §2, §3

The subject of data set [6] is immortalized human embryonic kidney cell line HEK293T. Nature of the data set: MTT cytotoxicity assay, HEK293T. The data set is classed as cell-based. Conditions: HEK-293T, 64 h treatment, MTT, read-out: IC50, nM HEK293T.
Text: as §1, §2, §3

The next data set deals with HCT116 cell line. The data set is described as follows: MTT cytotoxicity towards HCT116. In kind it is cell-based, human. Conditions: HCT-116; HCT116, human colon carcinoma; read-out: IC50.

For `COc1ccc(N(C)c2nc(C)nc3c2CCCC3)cc1` [Compound 2c, N-(4-methoxyphenyl)-N,2-dimethyl-5,6,7,8-tetrahydroquinazolin-4-amine], the IC50 in data set [1] stood at 1.6 ± 0.4 nM; in data set [2], 7200 ± 1900 nM; in data set [4] it was 2.7 ± 0.4 nM; in data set [5] it was 3.6 ± 0.4 nM; in data set [6], 2.9 ± 0.5 nM; with HCT116 cell line it was 0.2 ± 0.01 nM. Also, in data set [3] (MTT, 64 h), the “cytotoxicity, in words” value is given as “retained high cytotoxicity of the parent molecule”. Moreover, the “selectivity towards tumor cells” value in data set [3] (pair A549/VA13) was “no selectivity”.
